Measurements taken from PubChem BioAssay (NCI).
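Exposure lasted 48 hours, with cells grown in 96-well plates and compounds tested at five concentrations. Definition used: TGI = concentration required for complete inhibition of growth.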

How the values were obtained:
Assay in all cases: NCI anticancer screen, dose series, 48 h
NCI-H226 lung = system: NCI-H226 lung
RPMI-8226 leukemia = system: RPMI-8226 leukemia
DMS 114 small cell lung = system: DMS 114 small cell lung
SK-MEL-5 melanoma = system: SK-MEL-5 melanoma
NCI-H460 lung = system: NCI-H460 lung
SR leukemia = system: SR leukemia
UACC-257 melanoma = system: UACC-257 melanoma
HOP-62 NSCLC = system: HOP-62 NSCLC
CCRF-CEM leukemia = system: CCRF-CEM leukemia
HOP-92 NSCLC = system: HOP-92 NSCLC
HOP-18 NSCLC = system: HOP-18 NSCLC
SW-620 colon = system: SW-620 colon
LXFL 529 NSCLC = system: LXFL 529 NSCLC
SN12C renal = system: SN12C renal
RXF 393 renal = system: RXF 393 renal
A498 renal = system: A498 renal
MCF7 breast = system: MCF7 breast
ACHN renal = system: ACHN renal
SK-MEL-28 melanoma = system: SK-MEL-28 melanoma
DU-145 prostate = system: DU-145 prostate
IGROV1 ovarian = system: IGROV1 ovarian
MOLT-4 leukemia = system: MOLT-4 leukemia
SNB-19 CNS = system: SNB-19 CNS
HT29 colon = system: HT29 colon
KM20L2 colon = system: KM20L2 colon
M19-MEL melanoma = system: M19-MEL melanoma
MALME-3M melanoma = system: MALME-3M melanoma
HL-60(TB) leukemia = system: HL-60(TB) leukemia
MDA-MB-435 = system: MDA-MB-435
UO-31 renal = system: UO-31 renal
TK-10 renal = system: TK-10 renal
K-562 leukemia = system: K-562 leukemia
SNB-78 CNS = system: SNB-78 CNS
XF 498 CNS = system: XF 498 CNS
SK-OV-3 ovarian = system: SK-OV-3 ovarian
786-0 renal = system: 786-0 renal
KM12 colon = system: KM12 colon
OVCAR-5 ovarian = system: OVCAR-5 ovarian
UACC-62 melanoma = system: UACC-62 melanoma
U251 CNS = system: U251 CNS
HCT-15 colon = system: HCT-15 colon
A549 NSCLC = system: A549 NSCLC
OVCAR-4 ovarian = system: OVCAR-4 ovarian
LOX IMVI melanoma = system: LOX IMVI melanoma
T-47D breast = system: T-47D breast
SK-MEL-2 melanoma = system: SK-MEL-2 melanoma
OVCAR-3 ovarian = system: OVCAR-3 ovarian
DLD-1 colon = system: DLD-1 colon
HCT-116 colon = system: HCT-116 colon
SNB-75 CNS = system: SNB-75 CNS
OVCAR-8 ovarian = system: OVCAR-8 ovarian
HCC-2998 colon = system: HCC-2998 colon
CAKI-1 renal = system: CAKI-1 renal
NCI-H23 lung = system: NCI-H23 lung
COLO 205 colon = system: COLO 205 colon
PC-3 prostate = system: PC-3 prostate
SF-268 CNS = system: SF-268 CNS
SF-295 CNS = system: SF-295 CNS
M14 melanoma = system: M14 melanoma
EKVX NSCLC = system: EKVX NSCLC
NCI-H522 lung = system: NCI-H522 lung
SF-539 CNS = system: SF-539 CNS
MDA-MB-231 breast = system: MDA-MB-231 breast
DMS 273 small cell lung = system: DMS 273 small cell lung

Structure (SMILES): Cc1cc(NC(=O)NC(=O)c2ccccc2N)ccc1Oc1ncc(Br)cn1
- TGI (NCI-H226 lung): 6.64 µM
- TGI (RPMI-8226 leukemia): > 100 µM
- TGI (DMS 114 small cell lung): 0.0209 µM
- TGI (SK-MEL-5 melanoma): 16.2 µM
- TGI (NCI-H460 lung): 14.3 µM
- TGI (SR leukemia): > 15.8 µM
- TGI (UACC-257 melanoma): 54.2 µM
- TGI (HOP-62 NSCLC): 31.2 µM
- TGI (CCRF-CEM leukemia): > 100 µM
- TGI (HOP-92 NSCLC): 53.8 µM
- TGI (HOP-18 NSCLC): > 78 µM
- TGI (SW-620 colon): > 100 µM
- TGI (LXFL 529 NSCLC): > 57.2 µM
- TGI (SN12C renal): > 46.4 µM
- TGI (RXF 393 renal): 1.62 µM
- TGI (A498 renal): 0.751 µM
- TGI (MCF7 breast): 18.6 µM
- TGI (ACHN renal): > 100 µM
- TGI (SK-MEL-28 melanoma): > 100 µM
- TGI (DU-145 prostate): > 4.64 µM
- TGI (IGROV1 ovarian): 24 µM
- TGI (MOLT-4 leukemia): > 30.3 µM
- TGI (SNB-19 CNS): 38.5 µM
- TGI (HT29 colon): 0.258 µM
- TGI (KM20L2 colon): 0.442 µM
- TGI (M19-MEL melanoma): > 100 µM
- TGI (MALME-3M melanoma): > 69.9 µM
- TGI (HL-60(TB) leukemia): 1.39 µM
- TGI (MDA-MB-435): < 0.0108 µM
- TGI (UO-31 renal): > 59.6 µM
- TGI (TK-10 renal): 35.1 µM
- TGI (K-562 leukemia): > 100 µM
- TGI (SNB-78 CNS): > 100 µM
- TGI (XF 498 CNS): 67.6 µM
- TGI (SK-OV-3 ovarian): 3.02 µM
- TGI (786-0 renal): 41.2 µM
- TGI (KM12 colon): 54.9 µM
- TGI (OVCAR-5 ovarian): > 100 µM
- TGI (UACC-62 melanoma): 1.75 µM
- TGI (U251 CNS): 7.25 µM
- TGI (HCT-15 colon): 8.31 µM
- TGI (A549 NSCLC): 20.7 µM
- TGI (OVCAR-4 ovarian): > 75.9 µM
- TGI (LOX IMVI melanoma): > 67.1 µM
- TGI (T-47D breast): > 24.4 µM
- TGI (SK-MEL-2 melanoma): 0.481 µM
- TGI (OVCAR-3 ovarian): < 0.0173 µM
- TGI (DLD-1 colon): > 47.9 µM
- TGI (HCT-116 colon): 8.15 µM
- TGI (SNB-75 CNS): 37.7 µM
- TGI (OVCAR-8 ovarian): > 46.1 µM
- TGI (HCC-2998 colon): 7.77 µM
- TGI (CAKI-1 renal): 63.3 µM
- TGI (NCI-H23 lung): 0.575 µM
- TGI (COLO 205 colon): 0.108 µM
- TGI (PC-3 prostate): 6.15 µM
- TGI (SF-268 CNS): > 67.3 µM
- TGI (SF-295 CNS): 17 µM
- TGI (M14 melanoma): > 31.2 µM
- TGI (EKVX NSCLC): > 84.3 µM
- TGI (NCI-H522 lung): 0.0555 µM
- TGI (SF-539 CNS): 0.287 µM
- TGI (MDA-MB-231 breast): 7.93 µM

Structure (SMILES): O=C(O)C12C3C4C1C1C2C3C1(Br)C41OCCO1 (stereo not drawn)
- TGI (RPMI-8226 leukemia): > 100 µM
- TGI (DMS 114 small cell lung): > 100 µM
- TGI (SK-MEL-5 melanoma): > 100 µM
- TGI (NCI-H460 lung): > 100 µM
- TGI (UACC-257 melanoma): > 100 µM
- TGI (HOP-62 NSCLC): > 100 µM
- TGI (CCRF-CEM leukemia): > 100 µM
- TGI (HOP-92 NSCLC): > 100 µM
- TGI (HOP-18 NSCLC): > 100 µM
- TGI (SW-620 colon): > 100 µM
- TGI (LXFL 529 NSCLC): > 100 µM
- TGI (RXF 393 renal): > 100 µM
- TGI (A498 renal): > 100 µM
- TGI (ACHN renal): > 100 µM
- TGI (SK-MEL-28 melanoma): > 100 µM
- TGI (IGROV1 ovarian): > 100 µM
- TGI (MOLT-4 leukemia): > 100 µM
- TGI (SNB-19 CNS): > 100 µM
- TGI (HT29 colon): > 100 µM
- TGI (KM20L2 colon): > 100 µM
- TGI (M19-MEL melanoma): > 100 µM
- TGI (MALME-3M melanoma): > 100 µM
- TGI (HL-60(TB) leukemia): > 100 µM
- TGI (UO-31 renal): > 100 µM
- TGI (TK-10 renal): > 100 µM
- TGI (K-562 leukemia): > 100 µM
- TGI (SNB-78 CNS): > 100 µM
- TGI (XF 498 CNS): > 100 µM
- TGI (SK-OV-3 ovarian): > 100 µM
- TGI (786-0 renal): > 100 µM
- TGI (KM12 colon): > 100 µM
- TGI (OVCAR-5 ovarian): > 100 µM
- TGI (U251 CNS): > 100 µM
- TGI (A549 NSCLC): > 100 µM
- TGI (LOX IMVI melanoma): > 100 µM
- TGI (SK-MEL-2 melanoma): > 100 µM
- TGI (OVCAR-3 ovarian): > 100 µM
- TGI (DLD-1 colon): > 100 µM
- TGI (DMS 273 small cell lung): > 100 µM
- TGI (HCT-116 colon): > 100 µM
- TGI (SNB-75 CNS): > 100 µM
- TGI (OVCAR-8 ovarian): > 100 µM
- TGI (HCC-2998 colon): > 100 µM
- TGI (NCI-H23 lung): > 100 µM
- TGI (COLO 205 colon): > 100 µM
- TGI (SF-268 CNS): > 100 µM
- TGI (SF-295 CNS): > 100 µM
- TGI (EKVX NSCLC): > 100 µM
- TGI (NCI-H522 lung): > 100 µM
- TGI (SF-539 CNS): > 100 µM
